Data: PubChem BioAssay (NCI)
Where “and” joins values, the source holds several entries; their conditions need not be identical. Equal values may be shown once.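 Step 1: Grow cells in 96-well plates. Step 2: Expose to compound for 48 hours at 5 concentrations. Step 3: Interpolate endpoints linearly; if unreached, use highest concentration. Here, GI50 denotes the concentration required for 50% inhibition of growth. TGI: total growth inhibition.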

Assays:
Experiment in all cases: inhibition of tumour cell growth, NCI panel, 48 h
COLO 205 colon = test system: COLO 205 colon
IGROV1 ovarian = test system: IGROV1 ovarian
SK-MEL-28 melanoma = test system: SK-MEL-28 melanoma
SK-OV-3 ovarian = test system: SK-OV-3 ovarian
UACC-257 melanoma = test system: UACC-257 melanoma
DU-145 prostate = test system: DU-145 prostate
EKVX NSCLC = test system: EKVX NSCLC
HOP-62 NSCLC = test system: HOP-62 NSCLC
HS 578T breast = test system: HS 578T breast
MDA-N = test system: MDA-N
SR leukemia = test system: SR leukemia

Compound	TGI (COLO 205 colon)	TGI (IGROV1 ovarian)	TGI (SK-MEL-28 melanoma)	TGI (SK-OV-3 ovarian)	TGI (UACC-257 melanoma)	TGI (DU-145 prostate) [µM]	TGI (EKVX NSCLC)	TGI (HOP-62 NSCLC)	TGI (HS 578T breast) [µM]	TGI (MDA-N) [µM]	TGI (SR leukemia)	GI50 (COLO 205 colon) [µM]	GI50 (DU-145 prostate) [µM]	GI50 (HOP-62 NSCLC)	GI50 (HS 578T breast) [µM]	GI50 (IGROV1 ovarian)	GI50 (SK-MEL-28 melanoma)	GI50 (SK-OV-3 ovarian) [µM]	GI50 (SR leukemia) [µM]	GI50 (UACC-257 melanoma)
O=P(NCCCO)(OCc1ccccc1)N(CCCl)CCCl (stereo not drawn)	> 100 µM	> 100 µM	> 100 µM	> 100 µM	> 100 µM															
COC(=O)c1c(O)ccc2c1c1cc3ccccc3c(O)c1n2CCc1ccc(OC)c(OC)c1	30.4 µM	> 100 µM	91.1 µM	> 100 µM	> 100 µM	> 100	> 100 µM	> 100 µM	> 100	> 100	> 100 µM									
COc1cccc(C23CCN(C)C(CC(O)C2)C3)c1OC (stereo not drawn)	> 100 µM	> 100 µM	> 100 µM	> 100 µM	> 100 µM	> 100	> 100 µM	> 100 µM	> 100	> 100	> 100 µM									
O=C(Cc1nc2ccccc2[nH]c1=O)c1c[nH]c2ccccc12	28.9 µM	> 100 µM		47.6 µM	> 100 µM	> 100	> 100 µM	68.2 µM	> 100	> 100	> 100 µM									
Nc1nc(SCC(=O)c2ccc(Br)cc2)c2[nH]cnc2n1	46.8 µM	50.8 µM	> 100 µM	> 100 µM	> 100 µM	> 100	> 100 µM	> 100 µM	81.9	> 100	> 100 µM									
C/C(C=O)=C/[C@@]1(C)O[C@@H](C)[C@@](C)(O)[C@@H]1O	> 100 µM	> 100 µM	> 100 µM	> 100 µM	> 100 µM	> 100	> 100 µM	> 100 µM	> 100	> 100	7.12 µM									
C#C[C@]1(O)CC[C@H]2[C@@H]3CCc4cc(O)ccc4[C@H]3CC[C@@]21C	92.7 µM	> 100 µM	> 100 µM	79.7 µM	> 100 µM		> 100 µM				> 100 µM									
O=C(Nc1ccccc1)Oc1ccc(C(=S)Nc2ccc(Br)cc2)cc1	36.6 µM	28 µM	46.4 µM	> 100 µM	67.1 µM	81.8	31.1 µM	82.1 µM	> 100	47.2	50.8 µM									
CCCCCCCCCCCCCCCc1nc(=S)[nH][nH]1			> 100 µM	> 100 µM	> 100 µM		> 100 µM	> 100 µM			> 100 µM									
CCOc1nc2c(N3CCCC3)nc(N3CCNCC3)nc2nc1NCc1ccccc1	1.93 µM	2.64 µM	3.37 µM	3.26 µM	3.25 µM	6.84	4.33 µM	2.33 µM	3.53	2.31	3.12 µM									
CC1=NN(c2nc(N)nc(/C(C#N)=C\c3ccc(-c4ccc([N+](=O)[O-])cc4)o3)n2)C(C)(C)C1	> 100 µM	> 100 µM	> 100 µM	> 100 µM	> 100 µM	> 100	> 100 µM	67.5 µM	> 100	> 100	> 100 µM									
COc1ccccc1-c1c(C#N)c(N)[nH]c(=S)c1C#N	> 100 µM	> 100 µM	> 100 µM		> 100 µM	> 100	> 100 µM	> 100 µM	> 100	67.1	> 100 µM									
Cc1ccc(-c2cc(-c3ccc(Cl)cc3)nc(/N=C3\C(=O)N(CN(C)C)c4ccccc43)n2)cc1	> 100 µM	> 100 µM	> 100 µM	> 100 µM	94.7 µM	97.8	> 100 µM	> 100 µM	> 100	43.9										
Oc1ccccc1C=Nc1ccc(-c2nc3ccccc3s2)cc1	40.9 µM	> 100 µM	> 100 µM	> 100 µM	67.5 µM	> 100	85.2 µM	52.2 µM	> 100	> 100	> 100 µM									
COC(=O)/C=C\C(C#N)(C#N)N=Cc1ccc(OC)cc1	3.47 µM	28.7 µM	12.8 µM	31 µM	11.6 µM	17	32 µM	33.9 µM	33.7	16.5	3.99 µM									
CC(C)CC(N)C(=O)NC(C(=O)NC(CCCNC(=N)N)C(=O)NC(CS)C(=O)NC1CSCC(C(=O)NC(Cc2ccccc2)C(=O)NC(C(=O)NC(CCCNC(=N)N)C(=O)O)C(C)C)NC(=O)C2CCCN2C(=O)C(CCCCN)NC(=O)C2CCCN2C(=O)C2CCCN2C(=O)C(Cc2ccc(O)cc2)NC(=O)C(CO)NC(=O)C(CCCCN)NC(=O)C(C(C)O)NC(=O)C(Cc2c[nH]c3ccccc23)NC1=O)C(C)C (stereo not drawn)	> 25 µM	> 25 µM	> 25 µM	> 25 µM	> 25 µM	> 25	> 25 µM	> 25 µM	> 25	> 25	> 25 µM									
Cc1c(-c2ccccc2)[nH]c2cn[nH]c(=O)c12	> 100 µM	> 100 µM	> 100 µM	> 100 µM	> 100 µM	> 100	> 100 µM	> 100 µM	> 100	> 100	> 100 µM									

Compound	TGI (COLO 205 colon)	TGI (IGROV1 ovarian)	TGI (SK-MEL-28 melanoma)	TGI (SK-OV-3 ovarian)	TGI (UACC-257 melanoma)	TGI (DU-145 prostate) [µM]	TGI (EKVX NSCLC)	TGI (HOP-62 NSCLC)	TGI (HS 578T breast) [µM]	TGI (MDA-N) [µM]	TGI (SR leukemia)	GI50 (COLO 205 colon) [µM]	GI50 (DU-145 prostate) [µM]	GI50 (HOP-62 NSCLC)	GI50 (HS 578T breast) [µM]	GI50 (IGROV1 ovarian)	GI50 (SK-MEL-28 melanoma)	GI50 (SK-OV-3 ovarian) [µM]	GI50 (SR leukemia) [µM]	GI50 (UACC-257 melanoma)
CC(Oc1ccc(Cl)cc1Cl)C(=O)NN1C(=O)CC(=O)N(c2ccccc2)C1=S (stereo not drawn)	> 100 µM	> 100 µM	> 100 µM	> 100 µM	> 100 µM	> 100	> 100 µM	> 100 µM	> 100		22.4 µM									
CCc1n[nH]c(=O)n1/N=C(\C)c1ccccc1	> 100 µM	> 100 µM	> 100 µM		> 100 µM	> 100	> 100 µM	> 100 µM	> 100	> 100										
COc1ccc(CCn2cncn2)cc1	> 100 µM	> 100 µM	> 100 µM	> 100 µM	> 100 µM		> 100 µM	> 100 µM			> 100 µM									
COC(=O)c1c(O)ccc2c1c1c(n2Cc2cc(OC)cc(OC)c2)C(=O)c2ccccc2C1=O	3.28 µM	22 µM	33 µM	37.5 µM	> 100 µM	71.9	51.5 µM	23 µM	45.9	34.3	> 100 µM									
COc1ccc2nc3cc(Cl)ccc3c(NCCCN3CCN(CCCNc4ccc5nnn6c7ccccc7c(=O)c4c56)CC3)c2c1	> 25 µM	> 25 µM	> 25 µM	> 25 µM	> 25 µM	> 25	> 25 µM	> 25 µM	> 25	> 25	> 25 µM									
CN(C)c1ccc(-c2ccc(-c3ccc(C(=N)N)cn3)o2)cc1	2.28 µM	3.6 µM	3.36 µM	3.28 µM	3.43 µM	3.18		3.32 µM	4.07		2.01 µM	1.04	1.72	1.74 µM	1.9	1.89 µM	1.76 µM	1.88	0.378	1.77 µM
C=C1C(O)C2(O)OCC34C(CC5C(C)=CC(=O)C(O)C5(C)C23)OC(=O)C(OC(=O)C/C=C/CCCCCCCC)C14 (stereo not drawn)	0.0464 µM	0.0303 µM	0.0311 µM	0.606 µM			0.027 µM	0.041 µM												
CN(CCc1ccccn1)c1ccc2c(c1)C(=O)c1ccccc1-2	> 100 µM	> 100 µM	> 100 µM	> 100 µM	> 100 µM	> 100	> 100 µM	> 100 µM	> 100	> 100										
O=C1c2c(Br)sc(Br)c2[C@@H](O)[C@H]1O	28.5 µM	35.7 µM	41 µM	29.4 µM	29.3 µM	30.7	34 µM	30.6 µM	63.5	31.8	4.84 µM									
N#C/C(=C(/O)CCl)c1nc2ccccc2o1	3.45 µM	4.09 µM	3.5 µM	24.7 µM	13.2 µM	> 100		41.9 µM	> 100	15.8	15 µM									
Cc1ccc(-c2cn3c(nc4ccccc43)c(/C=C/c3ccco3)n2)cc1	> 100 µM	> 100 µM	> 100 µM	> 100 µM	> 100 µM	> 100		> 100 µM	84.2	> 100	89 µM									
COc1ccc(C2C3CCc4ccccc4C3=NN2S(=O)(=O)c2cccc(C(=O)O)c2OC)cc1 (stereo not drawn)	5.6 µM	> 100 µM		17.7 µM		> 100	> 100 µM	> 100 µM		7.25	> 100 µM									
O=c1c2cc(O)ccc2n2nnc3ccc(NCCNCCO)c1c32	50.9 µM and 21.7 µM	> 78.7 µM and 39.1 µM	22.7 µM and 16.2 µM	> 100 µM and 37 µM	53.8 µM and 20.7 µM		97 µM and 48.1 µM	43.4 µM and 18 µM			14.7 µM and 4.29 µM			10.1 µM and 3.25 µM		14.4 µM and 5.57 µM	9.78 µM and 4.3 µM			20.5 µM and 6.76 µM
CC(Oc1ccccc1Cl)C(=O)NN1C(=O)CC(=O)N(c2ccc(Cl)cc2)C1=S (stereo not drawn)	> 100 µM	> 100 µM	> 100 µM	> 100 µM	> 100 µM	> 100	> 100 µM	> 100 µM	> 100	> 100	54.4 µM									
CC(=O)c1ccc(Nc2c3ccccc3nc3occc23)cc1	0.136 µM	0.607 µM	50 µM	13.2 µM	48.8 µM	5.39	> 45.9 µM	> 100 µM		< 0.01	18.5 µM									
COc1cc(C2S/C(=C/c3ccccc3)C(=O)N2c2cccc(NC(C)=O)c2)cc(OC)c1OC (stereo not drawn)	86.6 µM		> 100 µM	> 100 µM	> 100 µM		53.2 µM	> 100 µM	60.7	> 100	> 100 µM									
